Columns and labels:
Human δ-opioid (DOP) = molecular target: T1, Human δ-opioid (DOP) (Homo sapiens, UniProt P41143); assay: Radioligand binding, human δ-opioid (DOP) membranes, FlashPlate, [3H]-Bremazocine; settings: compound at 10 μM; for A1: inhibition of radioligand binding: human DOP membranes
T1 construct: purchased Perkin Elmer Biosignal
In short: (§1)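 Cloned human receptor membranes were coated onto FlashPlate wells and incubated with radioligand and compound (added from a 0.5 mM DMSO daughter plate) for 1 hour at room temperature in the dark. Scintillation counting gave percent inhibition, with DMSO defining total and reference ligand defining non-specific binding.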

Human κ-Opioid (KOP) = molecular target: T2, Human κ-Opioid (KOP) (Homo sapiens, UniProt P41145); assay: Radioligand binding, human κ-opioid (KOP) membranes, filtration, [3H]-Diprenorphine; settings: compound at 10 μM; for A2: inhibition of radioligand binding: human KOP membranes
T2 construct: purchased Perkin Elmer Biosignal
In short: (§2)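 Percent inhibition of radioligand binding measured on recombinant human membranes: NK1 with [125I]-Substance P, KOP with [3H]-Diprenorphine. Incubation 1 h at room temperature, then harvest onto 0.3% PEI-soaked filters, cold Tris-HCl pH 7.4 washes and scintillation counting; non-specific binding from reference ligand wells.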

Human Melanocortin (MC3) = molecular target: T3, Human Melanocortin (MC3) (Homo sapiens, UniProt P41968); assay: Radioligand binding, human melanocortin MC3 membranes, FlashPlate, [125I]-NDP-αMSH; settings: compound at 10 μM; for A3: inhibition of radioligand binding: human MC3 membranes
T3 construct: purchased Perkin Elmer Biosignal
In short: as §1

Human Melanocortin (MC4) = molecular target: T4, Human Melanocortin (MC4) (Homo sapiens, UniProt P32245); assay: Radioligand binding, human melanocortin MC4 membranes, FlashPlate, [125I]-NDP-αMSH; settings: compound at 10 μM; for A4: inhibition of radioligand binding: human MC4 membranes
T4 construct: purchased Perkin Elmer Biosignal
In short: as §1

Human melanocortin (MC5) = molecular target: T5, Human melanocortin (MC5) (Homo sapiens, UniProt P33032); assay: Radioligand binding, human melanocortin MC5 membranes, FlashPlate, [125I]-NDP-αMSH; settings: compound at 10 μM; for A5: inhibition of radioligand binding: human MC5 membranes
T5 construct: purchased Perkin Elmer Biosignal
In short: as §1

[1] = molecular target: T6, Human melanin-concentrating hormone (MCH1) (Homo sapiens, UniProt Q99705); assay: Radioligand binding, human melanin-concentrating hormone MCH1 membranes, FlashPlate, [125I]-S36057; settings: compound at 10 μM; for A6: inhibition of radioligand binding: [125I]-S36057, human MCH1 membranes
T6 construct: purchased Perkin Elmer Biosignal
In short: as §1

Human μ-opioid (MOP) = molecular target: T7, Human μ-opioid (MOP) (Homo sapiens, UniProt P35372); assay: Radioligand binding, human μ-opioid (MOP) membranes, FlashPlate, [3H]-Naloxone; settings: compound at 10 μM; for A7: inhibition of radioligand binding: human MOP membranes
T7 construct: purchased Perkin Elmer Biosignal
In short: as §1

Human neurokinin (NK1) = molecular target: T8, Human neurokinin (NK1) (Homo sapiens, UniProt P25103); assay: Radioligand binding, human neurokinin NK1 membranes, filtration, [125I]-Substance P; settings: compound at 10 μM; for A8: inhibition of radioligand binding: human NK1 membranes
T8 construct: purchased Perkin Elmer Biosignal
In short: as §2

[2] = molecular target: T9, Human neuropeptide Y (NPY-Y1) (Homo sapiens, UniProt P25929); assay: Radioligand binding, human neuropeptide Y NPY-Y1 membranes, FlashPlate, [125I]-PYY; settings: compound at 10 μM
T9 construct: purchased Perkin Elmer Biosignal
T9 sequence (P25929 1-384): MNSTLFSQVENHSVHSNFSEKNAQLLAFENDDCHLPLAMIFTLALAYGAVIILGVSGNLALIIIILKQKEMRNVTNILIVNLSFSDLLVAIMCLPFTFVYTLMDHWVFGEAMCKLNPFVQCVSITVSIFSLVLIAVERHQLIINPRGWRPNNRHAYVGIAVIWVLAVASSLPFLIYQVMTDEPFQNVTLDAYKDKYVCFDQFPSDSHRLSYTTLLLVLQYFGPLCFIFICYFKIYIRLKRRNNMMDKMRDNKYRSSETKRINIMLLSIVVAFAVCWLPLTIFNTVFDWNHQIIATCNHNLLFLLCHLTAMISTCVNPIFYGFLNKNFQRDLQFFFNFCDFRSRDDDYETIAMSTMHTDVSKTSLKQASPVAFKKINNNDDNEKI
In short: as §1

Human opioid (ORL1) = molecular target: T10, Human opioid (ORL1) (Homo sapiens, UniProt P41146); assay: Radioligand binding, human opioid ORL1 membranes, FlashPlate, [125I]-Nociceptin; settings: compound at 10 μM
T10 construct: purchased Perkin Elmer Biosignal
In short: as §1

Mouse urotensin (mUR2) = molecular target: T11, Mouse urotensin (mUR2) (Mus musculus, UniProt Q8VIH9); assay: Radioligand binding, mouse urotensin mUR2 membranes, FlashPlate, [125I]-Urotensin II; settings: compound at 10 μM; for A11: inhibition of radioligand binding: mouse mUR2 membranes
T11 construct: purchased Perkin Elmer Biosignal
T11 sequence (Q8VIH9 1-385): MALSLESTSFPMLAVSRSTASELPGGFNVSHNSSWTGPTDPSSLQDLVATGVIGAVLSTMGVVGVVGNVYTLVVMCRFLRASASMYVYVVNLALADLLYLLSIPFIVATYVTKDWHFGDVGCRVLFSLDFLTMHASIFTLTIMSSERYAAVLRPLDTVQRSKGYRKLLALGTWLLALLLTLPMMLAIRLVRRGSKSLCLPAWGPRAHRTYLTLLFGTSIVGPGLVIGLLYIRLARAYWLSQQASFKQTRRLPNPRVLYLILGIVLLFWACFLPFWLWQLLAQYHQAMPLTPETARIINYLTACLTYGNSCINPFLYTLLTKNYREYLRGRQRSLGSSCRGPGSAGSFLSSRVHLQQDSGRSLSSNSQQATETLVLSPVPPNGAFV
In short: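 Cloned mouse urotensin (mUR2) receptor membranes from Perkin Elmer Biosignal were immobilized in FlashPlate microplates using a proprietary coating. Each well got 19.5 μl buffer, then 0.5 μl of DMSO, reference ligand, or compound. Adding 5 μl of [125I]-Urotensin II, diluted to 5× final concentration in binding buffer, started binding. Plates were sealed with TopSeal-A and incubated 1 hour at room temperature in the dark. Wells were counted for 30 seconds each on a TopCount after a 60-second delay, and percentage inhibition was calculated.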

[3] = [125I]-PYY, human NPY-Y1 membranes
[4] = [125I]-Nociceptin, human ORL1 membranes

T7 sequence (P35372 whole entry): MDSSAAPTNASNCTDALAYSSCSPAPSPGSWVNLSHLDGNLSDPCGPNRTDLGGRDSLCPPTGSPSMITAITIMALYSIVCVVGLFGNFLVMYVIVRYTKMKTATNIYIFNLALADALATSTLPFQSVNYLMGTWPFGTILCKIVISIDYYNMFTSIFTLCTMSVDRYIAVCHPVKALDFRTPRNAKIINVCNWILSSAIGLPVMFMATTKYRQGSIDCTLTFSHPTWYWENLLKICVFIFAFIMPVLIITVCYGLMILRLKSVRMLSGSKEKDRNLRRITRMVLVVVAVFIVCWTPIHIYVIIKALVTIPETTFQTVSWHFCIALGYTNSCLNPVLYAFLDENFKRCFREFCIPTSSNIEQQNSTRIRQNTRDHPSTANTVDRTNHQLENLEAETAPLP
T1 sequence (P41143 whole entry): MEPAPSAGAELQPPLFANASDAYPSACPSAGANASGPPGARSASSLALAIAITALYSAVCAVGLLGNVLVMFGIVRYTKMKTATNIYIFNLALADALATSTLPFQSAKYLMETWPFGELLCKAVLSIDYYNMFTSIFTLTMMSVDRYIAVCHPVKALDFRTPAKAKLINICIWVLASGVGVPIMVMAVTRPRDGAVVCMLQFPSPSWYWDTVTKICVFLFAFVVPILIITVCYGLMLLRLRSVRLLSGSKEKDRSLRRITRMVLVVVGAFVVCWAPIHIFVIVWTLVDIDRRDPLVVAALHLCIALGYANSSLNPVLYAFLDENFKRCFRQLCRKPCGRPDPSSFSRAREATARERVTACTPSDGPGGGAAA
T4 sequence (P32245 whole entry): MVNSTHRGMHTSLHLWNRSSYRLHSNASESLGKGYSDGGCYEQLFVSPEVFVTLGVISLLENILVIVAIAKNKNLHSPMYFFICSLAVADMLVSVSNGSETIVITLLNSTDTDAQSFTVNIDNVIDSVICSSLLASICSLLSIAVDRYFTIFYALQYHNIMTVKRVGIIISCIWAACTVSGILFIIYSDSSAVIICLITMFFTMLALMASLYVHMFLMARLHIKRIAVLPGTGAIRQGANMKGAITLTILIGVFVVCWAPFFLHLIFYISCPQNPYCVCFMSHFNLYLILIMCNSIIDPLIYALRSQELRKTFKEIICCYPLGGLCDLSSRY
T6 sequence (Q99705 whole entry): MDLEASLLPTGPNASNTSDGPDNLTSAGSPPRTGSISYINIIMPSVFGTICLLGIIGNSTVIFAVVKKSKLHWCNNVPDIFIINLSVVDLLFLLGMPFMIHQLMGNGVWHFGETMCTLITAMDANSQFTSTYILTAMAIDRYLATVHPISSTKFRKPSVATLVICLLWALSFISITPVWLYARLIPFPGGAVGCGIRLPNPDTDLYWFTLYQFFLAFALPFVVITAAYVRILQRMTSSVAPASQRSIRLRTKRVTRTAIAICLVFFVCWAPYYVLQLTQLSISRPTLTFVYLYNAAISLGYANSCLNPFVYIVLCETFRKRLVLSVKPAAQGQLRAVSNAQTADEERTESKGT
T5 sequence (P33032 whole entry): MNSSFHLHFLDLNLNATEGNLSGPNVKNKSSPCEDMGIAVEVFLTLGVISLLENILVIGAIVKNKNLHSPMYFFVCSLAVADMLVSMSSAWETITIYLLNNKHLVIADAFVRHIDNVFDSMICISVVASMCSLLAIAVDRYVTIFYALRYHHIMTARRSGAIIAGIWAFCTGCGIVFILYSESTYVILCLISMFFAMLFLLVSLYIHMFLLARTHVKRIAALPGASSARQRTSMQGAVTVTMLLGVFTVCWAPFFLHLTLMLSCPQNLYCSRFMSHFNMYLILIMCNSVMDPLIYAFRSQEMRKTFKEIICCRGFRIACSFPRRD
T10 sequence (P41146 whole entry): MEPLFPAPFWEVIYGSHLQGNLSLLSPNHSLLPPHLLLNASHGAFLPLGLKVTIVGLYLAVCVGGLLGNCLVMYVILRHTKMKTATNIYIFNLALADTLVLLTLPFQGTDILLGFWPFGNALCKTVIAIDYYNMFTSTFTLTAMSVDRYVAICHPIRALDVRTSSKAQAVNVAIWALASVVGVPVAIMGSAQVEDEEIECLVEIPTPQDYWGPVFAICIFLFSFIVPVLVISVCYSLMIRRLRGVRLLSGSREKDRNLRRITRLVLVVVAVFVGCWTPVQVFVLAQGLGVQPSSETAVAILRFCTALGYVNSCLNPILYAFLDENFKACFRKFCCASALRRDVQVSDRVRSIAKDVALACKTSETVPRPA
T8 sequence (P25103 whole entry): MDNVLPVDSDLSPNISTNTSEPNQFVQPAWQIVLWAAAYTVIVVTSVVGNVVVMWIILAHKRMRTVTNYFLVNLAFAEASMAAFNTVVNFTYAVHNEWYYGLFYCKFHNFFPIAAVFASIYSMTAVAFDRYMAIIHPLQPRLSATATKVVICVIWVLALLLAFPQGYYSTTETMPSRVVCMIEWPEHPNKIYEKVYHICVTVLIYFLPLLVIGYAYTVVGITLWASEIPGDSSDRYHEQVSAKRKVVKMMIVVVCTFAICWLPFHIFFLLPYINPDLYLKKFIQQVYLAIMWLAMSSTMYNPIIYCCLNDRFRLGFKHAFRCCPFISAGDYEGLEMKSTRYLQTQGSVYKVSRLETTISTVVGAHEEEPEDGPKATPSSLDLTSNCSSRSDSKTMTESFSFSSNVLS
T3 sequence (P41968 whole entry): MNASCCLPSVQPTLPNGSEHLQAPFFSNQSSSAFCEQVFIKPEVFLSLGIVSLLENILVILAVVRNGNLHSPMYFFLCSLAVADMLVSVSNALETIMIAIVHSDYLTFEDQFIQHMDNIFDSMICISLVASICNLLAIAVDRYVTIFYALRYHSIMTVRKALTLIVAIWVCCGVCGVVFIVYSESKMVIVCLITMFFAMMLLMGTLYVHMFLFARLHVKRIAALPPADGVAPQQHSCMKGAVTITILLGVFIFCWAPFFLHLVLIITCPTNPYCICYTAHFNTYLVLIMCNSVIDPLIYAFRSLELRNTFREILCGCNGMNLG
T2 sequence (P41145 whole entry): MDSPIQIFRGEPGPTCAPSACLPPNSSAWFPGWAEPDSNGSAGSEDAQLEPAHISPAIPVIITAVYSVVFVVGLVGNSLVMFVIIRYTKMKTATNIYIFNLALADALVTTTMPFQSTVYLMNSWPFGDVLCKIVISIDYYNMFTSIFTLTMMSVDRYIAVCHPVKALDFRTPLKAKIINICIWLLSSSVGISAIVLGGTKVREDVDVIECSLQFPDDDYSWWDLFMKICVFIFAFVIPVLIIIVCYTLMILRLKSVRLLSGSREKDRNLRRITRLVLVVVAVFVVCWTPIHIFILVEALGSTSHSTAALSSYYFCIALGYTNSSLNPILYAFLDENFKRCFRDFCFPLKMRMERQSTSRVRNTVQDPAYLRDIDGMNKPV

Compound | A1: inhibition of radioligand binding (Human δ-opioid (DOP); [3H]-Bremazocine) | A2: inhibition of radioligand binding (Human κ-Opioid (KOP); [3H]-Diprenorphine) | A5: inhibition of radioligand binding (Human melanocortin (MC5); [125I]-NDP-αMSH) | A6: inhibition of radioligand binding [1] | A7: inhibition of radioligand binding (Human μ-opioid (MOP); [3H]-Naloxone) | A8: inhibition of radioligand binding (Human neurokinin (NK1); [125I]-Substance P) | A9: inhibition of radioligand binding [2, 3] | A11: inhibition of radioligand binding (Mouse urotensin (mUR2); [125I]-Urotensin II) | A3: inhibition of radioligand binding (Human Melanocortin (MC3); [125I]-NDP-αMSH) | A4: inhibition of radioligand binding (Human Melanocortin (MC4); [125I]-NDP-αMSH) | A10: inhibition of radioligand binding (Human opioid (ORL1); [4]) | other results
O=C(N[C@H]1C(NC(=O)C2CCNCC2)O[C@H](CO)[C@@H](O)[C@@H]1OCc1cccc2ccccc12)c1ccccc1 (stereo partly shown) [compound 363] | – | – | – | – | – | – | – | – | – | – | – | A1: inhibition of radioligand binding, human δ-opioid (DOP) (Human δ-opioid (DOP); [3H]-Bremazocine): − (“−” indicates less than 50% inhibition at 10 μM); A2: inhibition of radioligand binding, human κ-opioid (KOP) (Human κ-Opioid (KOP); [3H]-Diprenorphine): − (“−” indicates less than 50% inhibition at 10 μM); A3: inhibition of radioligand binding, human melanocortin (MC3) (Human Melanocortin (MC3); [125I]-NDP-αMSH): − (“−” indicates less than 50% inhibition at 10 μM); A4: inhibition of radioligand binding, human melanocortin (MC4) (Human Melanocortin (MC4); [125I]-NDP-αMSH): − (“−” indicates less than 50% inhibition at 10 μM); A5: inhibition of radioligand binding, human melanocortin (MC5) (Human melanocortin (MC5); [125I]-NDP-αMSH): − (“−” indicates less than 50% inhibition at 10 μM); A6: inhibition of radioligand binding, human melanin-concentrating hormone (MCH1) ([1]; [125I]-S36057): − (“−” indicates less than 50% inhibition at 10 μM); A7: inhibition of radioligand binding, human μ-opioid (MOP) (Human μ-opioid (MOP); [3H]-Naloxone): − (“−” indicates less than 50% inhibition at 10 μM); A8: inhibition of radioligand binding, human neurokinin (NK1) (Human neurokinin (NK1); [125I]-Substance P): + (“+” indicates greater than 50% inhibition at 10 μM); A9: inhibition of radioligand binding, human neuropeptide Y (NPY-Y1) ([2]; [125I]-PYY): − (“−” indicates less than 50% inhibition at 10 μM); A10: inhibition of radioligand binding, human opioid (ORL1) (Human opioid (ORL1); [125I]-Nociceptin): − (“−” indicates less than 50% inhibition at 10 μM); A11: inhibition of radioligand binding, mouse urotensin (mUR2) (Mouse urotensin (mUR2); [125I]-Urotensin II): − (“−” indicates less than 50% inhibition at 10 μM)
NCCCC(=O)NC1C(OCc2ccc3ccccc3c2)OC(COCc2ccc(Cl)cc2)C(O)C1OCc1ccccc1 (single isomer, unassigned) [compound 470] | − (“−” indicates less than 50% inhibition at 10 μM) | − (“−” indicates less than 50% inhibition at 10 μM) | + (“+” indicates greater than 50% inhibition at 10 μM) | − (“−” indicates less than 50% inhibition at 10 μM) | − (“−” indicates less than 50% inhibition at 10 μM) | + (“+” indicates greater than 50% inhibition at 10 μM) | − (“−” indicates less than 50% inhibition at 10 μM) | − (“−” indicates less than 50% inhibition at 10 μM) | – | – | – | A3: inhibition of radioligand binding (Human Melanocortin (MC3); [125I]-NDP-αMSH, 10 µM): − (“−” indicates less than 50% inhibition at 10 μM); A4: inhibition of radioligand binding (Human Melanocortin (MC4); [125I]-NDP-αMSH, 10 µM): − (“−” indicates less than 50% inhibition at 10 μM); A10: inhibition of radioligand binding (Human opioid (ORL1); [125I]-Nociceptin, human ORL1 membranes, 10 µM): + (“+” indicates greater than 50% inhibition at 10 μM)
N=C(N)NCC(=O)NC1C(OCc2ccc(Cl)cc2)OC(COCc2ccc3ccccc3c2)C(O)C1OCc1ccc2ccccc2c1 (stereo not shown) [compound 420] | − (“−” indicates less than 50% inhibition at 10 μM) | − (“−” indicates less than 50% inhibition at 10 μM) | + (“+” indicates greater than 50% inhibition at 10 μM) | − (“−” indicates less than 50% inhibition at 10 μM) | − (“−” indicates less than 50% inhibition at 10 μM) | + (“+” indicates greater than 50% inhibition at 10 μM) | − (“−” indicates less than 50% inhibition at 10 μM) | − (“−” indicates less than 50% inhibition at 10 μM) | + (“+” indicates greater than 50% inhibition at 10 μM) | + (“+” indicates greater than 50% inhibition at 10 μM) | + (“+” indicates greater than 50% inhibition at 10 μM) | –
COC[C@H]1OC(OCc2ccc(Cl)cc2)[C@H](NC(=O)CCCNC(=N)N)[C@@H](OCc2ccccc2)[C@@H]1O (stereo partly shown) [compound 36] | – | – | – | – | – | – | – | – | – | – | – | A1 radioligand binding inhibition (Human δ-opioid (DOP); human δ-opioid (DOP) membranes): − (“−” indicates less than 50% inhibition at 10 μM); A2 radioligand binding inhibition (Human κ-Opioid (KOP); human κ-opioid (KOP) membranes): − (“−” indicates less than 50% inhibition at 10 μM); A3 radioligand binding inhibition (Human Melanocortin (MC3); human melanocortin MC3 membranes): − (“−” indicates less than 50% inhibition at 10 μM); A4 radioligand binding inhibition (Human Melanocortin (MC4); human melanocortin MC4 membranes): − (“−” indicates less than 50% inhibition at 10 μM); A5 radioligand binding inhibition (Human melanocortin (MC5); human melanocortin MC5 membranes): − (“−” indicates less than 50% inhibition at 10 μM); A6 radioligand binding inhibition ([1]; human MCH1 membranes): − (“−” indicates less than 50% inhibition at 10 μM); A7 radioligand binding inhibition (Human μ-opioid (MOP); human μ-opioid (MOP) membranes): + (“+” indicates greater than 50% inhibition at 10 μM); A8 radioligand binding inhibition (Human neurokinin (NK1); human neurokinin NK1 membranes): + (“+” indicates greater than 50% inhibition at 10 μM); A9 radioligand binding inhibition ([2]; human NPY-Y1 membranes): − (“−” indicates less than 50% inhibition at 10 μM); A10 radioligand binding inhibition (Human opioid (ORL1); human ORL1 membranes): − (“−” indicates less than 50% inhibition at 10 μM); A11 radioligand binding inhibition (Mouse urotensin (mUR2); mouse urotensin mUR2 membranes): − (“−” indicates less than 50% inhibition at 10 μM)
NCCC(=O)NC1C(OCc2ccc3ccccc3c2)OC(COCc2ccc(Cl)cc2)C(O)C1OCc1ccc(Cl)cc1 (stereo not shown) [compound 383] | − (“−” indicates less than 50% inhibition at 10 μM) | − (“−” indicates less than 50% inhibition at 10 μM) | + (“+” indicates greater than 50% inhibition at 10 μM) | − (“−” indicates less than 50% inhibition at 10 μM) | − (“−” indicates less than 50% inhibition at 10 μM) | + (“+” indicates greater than 50% inhibition at 10 μM) | − (“−” indicates less than 50% inhibition at 10 μM) | − (“−” indicates less than 50% inhibition at 10 μM) | + (“+” indicates greater than 50% inhibition at 10 μM) | + (“+” indicates greater than 50% inhibition at 10 μM) | − (“−” indicates less than 50% inhibition at 10 μM) | –

Source: patent US20080009418A1, “Selective Inhibitors” (Alchemia LTD., priority 2004, published 2008)
